Test results reported in ChEMBL document CHEMBL1201862, “PubChem BioAssay data set” (2004).
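Tested at 5 concentrations; 48 h exposure; 96-well plates; endpoints linearly interpolated, else capped at highest concentration. At the GI50, growth is halved.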 Active and inactive are the calls of the source. No stated cut-off is given here; in the data, active = GI50 up to about 1.1 µM and inactive = higher.

Columns and labels:
Assay in all cases: NCI tumour cell line growth inhibition, 48 h
MOLT-4 = tested on: MOLT-4
SK-MEL-2 = tested on: SK-MEL-2
A549 = tested on: A549
NCI/ADR-RES = tested on: NCI/ADR-RES
SF-539 = tested on: SF-539
NCI-H460 = tested on: NCI-H460
CCRF-CEM = tested on: CCRF-CEM
UO-31 = tested on: UO-31
HCC 2998 = tested on: HCC 2998
PC-3 = tested on: PC-3
MDA-MB-435 = tested on: MDA-MB-435
SN12C = tested on: SN12C
HCT-15 = tested on: HCT-15
SF-295 = tested on: SF-295
NCI-H226 = tested on: NCI-H226
HT-29 = tested on: HT-29
NCI-H23 = tested on: NCI-H23
NCI-H522 = tested on: NCI-H522
SF-268 = tested on: SF-268
MDA-N = tested on: MDA-N
HOP-62 = tested on: HOP-62
M14 = tested on: M14
HCT-116 = tested on: HCT-116
RPMI-8226 = tested on: RPMI-8226
UACC-257 = tested on: UACC-257
LOX IMVI = tested on: LOX IMVI
SK-MEL-5 = tested on: SK-MEL-5
K562 = tested on: K562
SK-OV-3 = tested on: SK-OV-3
786-0 = tested on: 786-0
OVCAR-3 = tested on: OVCAR-3
SNB-19 = tested on: SNB-19
HOP-92 = tested on: HOP-92
IGROV-1 = tested on: IGROV-1
CAKI-1 = tested on: CAKI-1
SK-MEL-28 = tested on: SK-MEL-28
KM12 = tested on: KM12
SNB-75 = tested on: SNB-75
DU-145 = tested on: DU-145
Malme-3M = tested on: Malme-3M
EKVX = tested on: EKVX
OVCAR-5 = tested on: OVCAR-5
T47D = tested on: T47D
BT-549 = tested on: BT-549
Hs-578T = tested on: Hs-578T
RXF 393 = tested on: RXF 393
HL-60 = tested on: HL-60
OVCAR-8 = tested on: OVCAR-8
OVCAR-4 = tested on: OVCAR-4
SR = tested on: SR
COLO 205 = tested on: COLO 205
SW-620 = tested on: SW-620
U-251 = tested on: U-251
UACC-62 = tested on: UACC-62
A498 = tested on: A498
ACHN = tested on: ACHN
MCF7 = tested on: MCF7
TK-10 = tested on: TK-10

For `COc1cccc(/N=C/c2cc3cc(Br)ccc3nc2Cl)c1`, the GI50 (MOLT-4) was 7.05 µM (inactive), the GI50 (SK-MEL-2) was 13.7 µM (inactive) and the GI50 (A549) was > 50 µM (inactive). For the same compound, the GI50 (NCI/ADR-RES) was 17.2 µM (inactive), the GI50 (SF-539) was 13.1 µM (inactive) and the GI50 (NCI-H460) was 13.8 µM (inactive). The GI50 (CCRF-CEM) was 4.78 µM (inactive), the GI50 (UO-31) was 12.5 µM (inactive) and the GI50 (HCC 2998) was 15 µM (inactive). The GI50 (PC-3) was 8.67 µM (inactive), the GI50 (MDA-MB-435) was 11.1 µM (inactive) and the GI50 (SN12C) was 15.5 µM (inactive). For the same compound, the GI50 (HCT-15) was 35.3 µM, the GI50 (SF-295) was 39.4 µM (inactive) and the GI50 (NCI-H226) was 5.58 µM (inactive). For the same compound, the GI50 (HT-29) was 27 µM (inactive), the GI50 (NCI-H23) was 22.1 µM (inactive) and the GI50 (NCI-H522) was 8.43 µM (inactive). The GI50 (SF-268) was 20.1 µM (inactive), the GI50 (MDA-N) was 13.6 µM (inactive) and the GI50 (HOP-62) was 41.4 µM (inactive). The GI50 (M14) was > 50 µM (inactive), the GI50 (HCT-116) was 11.2 µM (inactive) and the GI50 (RPMI-8226) was 2.96 µM (inactive). For the same compound, the GI50 (UACC-257) was 44.5 µM (inactive), the GI50 (LOX IMVI) was 18.9 µM (inactive) and the GI50 (SK-MEL-5) was 36.1 µM (inactive). The GI50 (K562) was 8.09 µM (inactive), the GI50 (SK-OV-3) was 15.2 µM (inactive) and the GI50 (786-0) was 2.91 µM (inactive). For the same compound, the GI50 (OVCAR-3) was 34.4 µM (inactive), the GI50 (SNB-19) was > 50 µM (inactive) and the GI50 (HOP-92) was 30.3 µM (inactive). The GI50 (IGROV-1) was 12.6 µM (inactive), the GI50 (CAKI-1) was 7.06 µM (inactive) and the GI50 (SK-MEL-28) was > 50 µM (inactive). For the same compound, the GI50 (KM12) was 9.75 µM (inactive), the GI50 (SNB-75) was 17.1 µM (inactive) and the GI50 (DU-145) was 48.8 µM (inactive). The GI50 (Malme-3M) was > 50 µM (inactive), the GI50 (EKVX) was > 50 µM (inactive) and the GI50 (OVCAR-5) was > 50 µM (inactive). The GI50 (T47D) was 10.5 µM (inactive), the GI50 (BT-549) was 47 µM (inactive) and the GI50 (Hs-578T) was 40.6 µM (inactive). For the same compound, the GI50 (RXF 393) was 13.7 µM (inactive), the GI50 (HL-60) was 10 µM (inactive) and the GI50 (OVCAR-8) was 2.95 µM (inactive). For the same compound, the GI50 (OVCAR-4) was 0.736 µM (active), the GI50 (SR) was 1.85 µM (inactive) and the GI50 (COLO 205) was > 50 µM (inactive). The GI50 (SW-620) was 11.8 µM (inactive).

`CCN(CC)CCC1(C(=O)OC)SCCc2ccc(C)cc21` (stereo not drawn) was tested, and the GI50 (MOLT-4) was > 100 µM (inactive), the GI50 (SK-MEL-2) was > 100 µM (inactive) and the GI50 (A549) was > 100 µM (inactive). The GI50 (U-251) was > 100 µM (inactive), the GI50 (NCI/ADR-RES) was > 100 µM (inactive) and the GI50 (UACC-62) was > 100 µM (inactive). The GI50 (SF-539) was > 100 µM (inactive), the GI50 (NCI-H460) was > 100 µM (inactive) and the GI50 (CCRF-CEM) was > 100 µM (inactive). For the same compound, the GI50 (UO-31) was > 100 µM (inactive), the GI50 (HCC 2998) was > 100 µM (inactive) and the GI50 (PC-3) was > 100 µM (inactive). The GI50 (MDA-MB-435) was > 100 µM (inactive), the GI50 (A498) was > 100 µM (inactive) and the GI50 (SN12C) was > 100 µM (inactive). The GI50 (HCT-15) was over 100 µM, the GI50 (SF-295) was > 100 µM (inactive) and the GI50 (NCI-H226) was > 100 µM (inactive). For the same compound, the GI50 (NCI-H23) was > 100 µM (inactive), the GI50 (NCI-H522) was > 100 µM (inactive) and the GI50 (SF-268) was > 100 µM (inactive). The GI50 (MDA-N) was > 100 µM (inactive), the GI50 (HOP-62) was > 100 µM (inactive) and the GI50 (ACHN) was > 100 µM (inactive). The GI50 (MCF7) was > 100 µM (inactive), the GI50 (M14) was > 100 µM (inactive) and the GI50 (HCT-116) was > 100 µM (inactive). For the same compound, the GI50 (RPMI-8226) was > 100 µM (inactive), the GI50 (UACC-257) was > 100 µM (inactive) and the GI50 (LOX IMVI) was > 100 µM (inactive). The GI50 (SK-MEL-5) was > 100 µM (inactive), the GI50 (K562) was > 100 µM (inactive) and the GI50 (SK-OV-3) was > 100 µM (inactive). For the same compound, the GI50 (786-0) was > 100 µM (inactive), the GI50 (OVCAR-3) was > 100 µM (inactive) and the GI50 (SNB-19) was > 100 µM (inactive). The GI50 (HOP-92) was > 100 µM (inactive), the GI50 (IGROV-1) was > 100 µM (inactive) and the GI50 (CAKI-1) was > 100 µM (inactive). The GI50 (SK-MEL-28) was > 100 µM (inactive), the GI50 (KM12) was > 100 µM (inactive) and the GI50 (SNB-75) was 63.2 µM (inactive). For the same compound, the GI50 (DU-145) was > 100 µM (inactive), the GI50 (Malme-3M) was > 100 µM (inactive) and the GI50 (EKVX) was > 100 µM (inactive). For the same compound, the GI50 (TK-10) was > 100 µM (inactive), the GI50 (OVCAR-5) was > 100 µM (inactive) and the GI50 (T47D) was > 100 µM (inactive). The GI50 (BT-549) was > 100 µM (inactive), the GI50 (Hs-578T) was > 100 µM (inactive) and the GI50 (RXF 393) was > 100 µM (inactive). For the same compound, the GI50 (OVCAR-8) was > 100 µM (inactive), the GI50 (OVCAR-4) was > 100 µM (inactive) and the GI50 (SR) was > 100 µM (inactive). The GI50 (COLO 205) was > 100 µM (inactive) and the GI50 (SW-620) was > 100 µM (inactive).

In the case of `COc1ccc(/C=C2\C[C@H]3[C@@H]4CCC5=C/C(=N/O)CC[C@]5(C)[C@H]4CC[C@]3(C)\C2=N\O)cc1OC`, the GI50 (MOLT-4) is reported as 5.79 µM (inactive), the GI50 (SK-MEL-2) is reported as 15.9 µM (inactive) and the GI50 (A549) is reported as 6.98 µM (inactive). The GI50 (NCI/ADR-RES) was 26.4 µM (inactive), the GI50 (UACC-62) was 22.2 µM (inactive) and the GI50 (SF-539) was 16.3 µM (inactive). For the same compound, the GI50 (NCI-H460) was 3.61 µM (inactive), the GI50 (CCRF-CEM) was 6.76 µM (inactive) and the GI50 (UO-31) was 4.5 µM (inactive). For the same compound, the GI50 (HCC 2998) was 10.7 µM (inactive), the GI50 (PC-3) was 10.7 µM (inactive) and the GI50 (MDA-MB-435) was 18.8 µM (inactive). The GI50 (A498) was 33.1 µM (inactive), the GI50 (SN12C) was 12.7 µM (inactive) and the GI50 (HCT-15) was 14.7 µM. The GI50 (SF-295) was 7 µM (inactive), the GI50 (NCI-H226) was 2.51 µM (inactive) and the GI50 (HT-29) was 7.66 µM (inactive). For the same compound, the GI50 (NCI-H23) was 43.4 µM (inactive), the GI50 (NCI-H522) was 23.1 µM (inactive) and the GI50 (SF-268) was 51.6 µM (inactive). The GI50 (MDA-N) was 11.6 µM (inactive), the GI50 (HOP-62) was 40.6 µM (inactive) and the GI50 (ACHN) was 14.5 µM (inactive). For the same compound, the GI50 (MCF7) was 6.87 µM (inactive), the GI50 (M14) was 40.2 µM (inactive) and the GI50 (HCT-116) was 6.56 µM (inactive). The GI50 (RPMI-8226) was 4.49 µM (inactive), the GI50 (UACC-257) was 6.07 µM (inactive) and the GI50 (LOX IMVI) was 18.8 µM (inactive). For the same compound, the GI50 (SK-MEL-5) was 2.75 µM (inactive), the GI50 (K562) was 6.92 µM (inactive) and the GI50 (SK-OV-3) was 39.3 µM (inactive). For the same compound, the GI50 (786-0) was 17.8 µM (inactive), the GI50 (OVCAR-3) was 9.1 µM (inactive) and the GI50 (SNB-19) was 52.6 µM (inactive). The GI50 (HOP-92) was 7.85 µM (inactive), the GI50 (IGROV-1) was 47.4 µM (inactive) and the GI50 (CAKI-1) was 8.43 µM (inactive). The GI50 (SK-MEL-28) was 88.5 µM (inactive), the GI50 (KM12) was 8.04 µM (inactive) and the GI50 (SNB-75) was > 100 µM (inactive). For the same compound, the GI50 (DU-145) was 63.4 µM (inactive), the GI50 (Malme-3M) was 43.5 µM (inactive) and the GI50 (EKVX) was 3.36 µM (inactive). For the same compound, the GI50 (OVCAR-5) was 41 µM (inactive), the GI50 (T47D) was 7.66 µM (inactive) and the GI50 (BT-549) was 57.8 µM (inactive). The GI50 (Hs-578T) was > 100 µM (inactive), the GI50 (RXF 393) was 28.4 µM (inactive) and the GI50 (HL-60) was 4.72 µM (inactive). The GI50 (OVCAR-8) was 11 µM (inactive), the GI50 (OVCAR-4) was 11 µM (inactive) and the GI50 (SR) was 6.14 µM (inactive). The GI50 (SW-620) was 34.2 µM (inactive).
